Test results published in ChEMBL document CHEMBL3217710, “Antimalarial peroxides: advances in drug discovery and design” (Medchemcomm, 2012).

What was measured:
Plasmodium falciparum [1] = experiment: Antimalarial activity against chloroquine-resistant Plasmodium falciparum K1; format: functional, organism-based
[2] = Half life in simulated stomach acid; format: ADME
Plasmodium berghei [3] = experiment: Antimalarial activity against chloroquine-sensitive Plasmodium berghei infected in mouse; format: functional
Plasmodium yoelii = experiment: Antimalarial activity against chloroquine-resistant Plasmodium yoelii infected in po dosed mouse; format: functional
Plasmodium berghei [4] = experiment: Antimalarial activity against Plasmodium berghei infected in sc dosed mouse; format: functional, organism-based
Plasmodium falciparum [5] = experiment: Antimalarial activity against chloroquine-resistant Plasmodium falciparum; format: functional, organism-based
Plasmodium vinckei [6] = experiment: Antimalarial activity against Plasmodium vinckei infected in po dosed mouse assessed as decrease in parasitemia by peters four day suppressive test; format: functional; conditions: 96 h
Plasmodium vinckei [7] = experiment: Antimalarial activity against Plasmodium vinckei infected in ip dosed mouse assessed as decrease in parasitemia by peters four day suppressive test; format: functional; conditions: 96 h
Plasmodium falciparum [8] = experiment: Antimalarial activity against chloroquine-sensitive Plasmodium falciparum; format: functional, organism-based
Plasmodium falciparum [9] = experiment: Antimalarial activity against chloroquine-sensitive Plasmodium falciparum FCR-3; format: functional; conditions: FCR-3/Gambia
[10] = Half life of the compound in HCl solution at pH 1; format: physicochemical
Plasmodium falciparum [11] = experiment: Antimalarial activity against Plasmodium falciparum; format: functional, organism-based
[12] = Oral bioavailability in rat at 50 mg/kg; format: ADME, organism-based; conditions: in vivo
[13] = Octanol-water partition coefficient, log P of the compound at pH 7.4; format: physicochemical
Plasmodium falciparum [14] = experiment: Antimalarial activity against chloroquine-sensitive Plasmodium falciparum at 1.4 nM relative to control; format: functional
Plasmodium falciparum [15] = experiment: Antimalarial activity against chloroquine-sensitive Plasmodium falciparum at 5.2 nM relative to control; format: functional
[16] = Therapeutic index, ratio of compound activity in mouse assessed as body weight gain to compound activity against Plasmodium berghei infected in mouse; format: organism-based; conditions: in vivo, read-out: TI
Plasmodium falciparum [17] = experiment: Antimalarial activity against chloroquine-sensitive Plasmodium falciparum at 4.6 nM relative to control; format: functional
Plasmodium falciparum [18] = experiment: Antimalarial activity against multi-drug resistant Plasmodium falciparum; format: functional, organism-based
Plasmodium falciparum [19] = experiment: Antimalarial activity against chloroquine-sensitive Plasmodium falciparum NF54; format: functional, organism-based
[20] = Half life in human infected with Plasmodium; conditions: in vivo
[21] = Drug degradation at 40 degC after 1 month; format: physicochemical; conditions: read-out: Drug degradation
[22] = Drug degradation at 40 degC after 3 months; format: physicochemical; conditions: read-out: Drug degradation

## Fc1ccc(C2=C[C@H]3OC4(CCCC4)OO[C@@]3(c3ccc(F)cc3)C2)cc1
Plasmodium falciparum [1]
  IC50: < 5 nM

## C[C@H]1[C@@H](CCc2ccc(C(=O)O)cc2)O[C@@H]2O[C@]3(C)CC[C@H]4[C@H](C)CC[C@@H]1[C@@]24OO3
[2]
  half-life: 0.546 days

## C[C@H]1[C@@H](Oc2ccc(C(F)(F)F)cc2)O[C@@H]2O[C@]3(C)CC[C@H]4[C@H](C)CC[C@@H]1[C@@]24OO3
Plasmodium berghei [3]
  ED50: 2.1 mg/kg

## C[C@H]1[C@@H](CCN2CCN(c3cccc(C(F)(F)F)c3)CC2)O[C@@H]2O[C@]3(C)CC[C@H]4[C@H](C)CC[C@@H]1[C@@]24OO3
Plasmodium yoelii
  ED50: 3.1 mg/kg

## C[C@H]1[C@@H](CCN2CCN(c3ccc(F)cc3)CC2)O[C@@H]2O[C@]3(C)CC[C@H]4[C@H](C)CC[C@@H]1[C@@]24OO3
Plasmodium yoelii
  ED50: < 10 mg/kg

## C[C@H]1[C@@H](CCN2CCN(c3ccccc3)CC2)O[C@@H]2O[C@]3(C)CC[C@H]4[C@H](C)CC[C@@H]1[C@@]24OO3
Plasmodium yoelii
  ED50: < 10 mg/kg

## C[C@H]1[C@@H](CCN2CCN(c3ccc([N+](=O)[O-])cc3)CC2)O[C@@H]2O[C@]3(C)CC[C@H]4[C@H](C)CC[C@@H]1[C@@]24OO3
Plasmodium yoelii
  ED50: < 10 mg/kg

## COC1(c2ccc(S(C)(=O)=O)cc2)C=CC2(CCCCCC2)OO1 (stereo not drawn)
Plasmodium berghei [4]
  IC50: 31 nM

## CC(C)C1=C[C@H]2OC3(CCC(NCCNc4ccnc5cc(Cl)ccc45)CC3)OO[C@@]2(C)CC1.O=C(O)CC(O)(CC(=O)O)C(=O)O (stereo partly drawn)
Plasmodium falciparum [5]
  IC50: 5 nM
Plasmodium vinckei [6]
  ED50: 18 mg/kg
Plasmodium vinckei [7]
  ED50: 5 mg/kg
Plasmodium falciparum [8]
  IC50: 4 nM

## C1CCCCCC2(CCCCC1)OOCCCOO2
Plasmodium falciparum [9]
  EC50: 2.5 nM

## C[C@@H]1CC[C@H]2[C@@H](C)C(Oc3ccccc3)O[C@@H]3O[C@@]4(C)CC[C@@H]1[C@]32OO4 (stereo partly drawn)
Plasmodium falciparum [5]
  IC50: 5.3 nM
Plasmodium falciparum [8]
  IC50: 3.9 nM

## C[C@@H]1CC[C@H]2[C@@H](C)[C@](O)(C(F)(F)F)O[C@@H]3O[C@@]4(C)CC[C@@H]1[C@]32OO4
[10]
  half-life: 31.7 days
Plasmodium falciparum [11]
  IC50: 9.4 nM
[12]
  bioavailability: 28%

## CO[C@@]1(C(F)(F)F)O[C@@H]2O[C@@]3(C)CC[C@H]4[C@H](C)CC[C@@H]([C@H]1C)[C@@]24OO3
[10]
  half-life: 27.5 days
Plasmodium falciparum [11]
  IC50: 0.8 nM

## CCO[C@@]1(C(F)(F)F)O[C@@H]2O[C@@]3(C)CC[C@H]4[C@H](C)CC[C@@H]([C@H]1C)[C@@]24OO3
[10]
  half-life: 20.8 days
Plasmodium falciparum [11]
  IC50: 3.3 nM

## C[C@@H]1CC[C@H]2[C@@H](C)[C@](OC(=O)CCC(=O)O)(C(F)(F)F)O[C@@H]3O[C@@]4(C)CC[C@@H]1[C@]32OO4
Plasmodium falciparum [11]
  IC50: 4.1 nM

## C[C@H]1[C@H](N2CCOCC2)O[C@@H]2O[C@@]3(C)CC[C@H]4[C@H](C)CC[C@@H]1[C@@]24OO3
[13]
  logD: 3.05

## C[C@H]1[C@H](N2CC[S+]([O-])CC2)O[C@@H]2O[C@@]3(C)CC[C@H]4[C@H](C)CC[C@@H]1[C@@]24OO3
[13]
  logD: 2.63

## C[C@H]1[C@H](c2ccco2)O[C@@H]2O[C@@]3(C)CC[C@H]4[C@H](C)CC[C@@H]1[C@@]24OO3
Plasmodium falciparum [14]
  inhibition at 0.0014 µM: 50%

## Cc1ccc([C@@H]2O[C@@H]3O[C@@]4(C)CC[C@H]5[C@H](C)CC[C@@H]([C@H]2C)[C@@]35OO4)o1
Plasmodium falciparum [15]
  inhibition at 0.0052 µM: 50%

## C[C@H]1[C@@H](CC(C[C@H]2O[C@@H]3O[C@@]4(C)CC[C@H]5[C@H](C)CC[C@@H]([C@H]2C)[C@@]35OO4)C(=O)O)O[C@@H]2O[C@@]3(C)CC[C@H]4[C@H](C)CC[C@@H]1[C@@]24OO3 (stereo partly drawn)
[16]
  selectivity ratio: 167

## CC(=O)OC1(C)CCC2CC1OO[C@]2(/C=C\c1ccc(F)cc1)c1ccccc1 (stereo partly drawn)
Plasmodium falciparum [1]
  IC50: 29 nM

## CC(=O)OC1(C)CCC2CC1OO[C@]2(/C=C\c1ccc(Cl)cc1)c1ccccc1 (stereo partly drawn)
Plasmodium falciparum [1]
  IC50: 23 nM

## CC1CCC2CC1OO[C@]2(C)/C=C/[C@H](O)C(C)(C)O (stereo partly drawn)
Plasmodium falciparum [1]
  IC50: 115 nM

## CC1CCC2CC1OO[C@]2(C)/C=C/[C@@H](O)C(C)(C)O (stereo partly drawn)
Plasmodium falciparum [1]
  IC50: 56 nM

## Cc1ccc(C2=C[C@H]3OC4(CCCC4)OO[C@@]3(c3ccc(C)cc3)C2)cc1
Plasmodium falciparum [1]
  IC50: < 5 nM

## Fc1ccc(C2=C[C@H]3OC4(CCOCC4)OO[C@@]3(c3ccc(F)cc3)C2)cc1
Plasmodium falciparum [1]
  IC50: < 5 nM

## C=C(C)[C@@H]1OO[C@]2(O[C@H]1C1CC1)[C@H]1CC3C[C@@H](C1)C[C@H]2C3
Plasmodium falciparum [1]
  IC50: < 5 nM

## C=C(C)[C@@H]1OO[C@]2(O[C@H]1CCC)[C@H]1CC3C[C@@H](C1)C[C@H]2C3
Plasmodium falciparum [1]
  IC50: < 5 nM

## OCCCCCCC1COOC2(CCCCCCCCCCC2)OOC1
Plasmodium falciparum [9]
  EC50: 2.3 nM

## Clc1ccc2c(NCCNC3CCC4(CC3)OOC3(c5ccccc5)CC(c5ccccc5)=CC3O4)ccnc2c1 (stereo not drawn)
Plasmodium falciparum [5]
  IC50: 20 nM
Plasmodium falciparum [8]
  IC50: 7 nM

## CC1(C)COC2(CCC(NC3CCC(Nc4ccnc5cc(Cl)ccc45)CC3)CC2)OO1 (stereo not drawn)
Plasmodium falciparum [5]
  IC50: 7 nM
Plasmodium falciparum [8]
  IC50: 7 nM

## Cc1ccc(OC2O[C@@H]3O[C@@]4(C)CC[C@H]5[C@H](C)CC[C@@H]([C@H]2C)[C@@]35OO4)cc1 (stereo partly drawn)
Plasmodium falciparum [5]
  IC50: 5.3 nM
Plasmodium falciparum [8]
  IC50: 3.9 nM

## C[C@@H]1CC[C@H]2[C@@H](C)C(Oc3ccc(C(F)(F)F)cc3)O[C@@H]3O[C@@]4(C)CC[C@@H]1[C@]32OO4 (stereo partly drawn)
Plasmodium falciparum [5]
  IC50: 5.3 nM
Plasmodium falciparum [8]
  IC50: 3.9 nM

## COc1ccc(OC2O[C@@H]3O[C@@]4(C)CC[C@H]5[C@H](C)CC[C@@H]([C@H]2C)[C@@]35OO4)cc1 (stereo partly drawn)
Plasmodium falciparum [5]
  IC50: 5.3 nM
Plasmodium falciparum [8]
  IC50: 3.9 nM

## C[C@@H]1CC[C@H]2[C@@H](C)C(Oc3ccc(F)cc3)O[C@@H]3O[C@@]4(C)CC[C@@H]1[C@]32OO4 (stereo partly drawn)
Plasmodium falciparum [5]
  IC50: 5.3 nM
Plasmodium falciparum [8]
  IC50: 3.9 nM

## C[C@@H]1CC[C@H]2[C@@H](C)C(Oc3ccc(Cl)cc3)O[C@@H]3O[C@@]4(C)CC[C@@H]1[C@]32OO4 (stereo partly drawn)
Plasmodium falciparum [5]
  IC50: 5.3 nM
Plasmodium falciparum [8]
  IC50: 3.9 nM

## C[C@@H]1CC[C@H]2[C@@H](C)C(Oc3ccc(-c4cccc5ccccc45)cc3)O[C@@H]3O[C@@]4(C)CC[C@@H]1[C@]32OO4 (stereo partly drawn)
Plasmodium falciparum [5]
  IC50: 5.3 nM
Plasmodium falciparum [8]
  IC50: 3.9 nM

## C[C@H]1[C@H](c2cccn2C)O[C@@H]2O[C@@]3(C)CC[C@H]4[C@H](C)CC[C@@H]1[C@@]24OO3
Plasmodium falciparum [17]
  inhibition at 0.0046 µM: 50%

## C1CCCCCC2(CCCCC1)OOCCCCCOO2
Plasmodium falciparum [9]
  EC50: 1 nM

## CO[C@H]1O[C@@H]2O[C@@]3(C)CC[C@H]4[C@H](C)CC[C@@H]([C@H]1C)[C@@]24OO3 [ARTEMETHER]
Plasmodium yoelii
  ED50: 6 mg/kg
[13]
  logD: 4

## C[C@H]1[C@H](N2CCS(=O)(=O)CC2)O[C@@H]2O[C@@]3(C)CC[C@H]4[C@H](C)CC[C@@H]1[C@@]24OO3 [ARTEMIFONE]
Plasmodium falciparum [18]
  EC50: 0.14 nM
Plasmodium berghei [4]; sc
  ED90: 1.5 mg/kg
[13]
  logD: 2.49

## C[C@H]1[C@H](N2CCSCC2)O[C@@H]2O[C@@]3(C)CC[C@H]4[C@H](C)CC[C@@H]1[C@@]24OO3 [ARTEMISIDE]
[13]
  logD: 4.97

## C[C@@H]1CC[C@H]2[C@@H](C)C(=O)O[C@@H]3O[C@@]4(C)CC[C@@H]1[C@]32OO4 [ARTEMISININ]
Plasmodium falciparum [19]
  IC50: 8.9 nM
Plasmodium falciparum [1]
  IC50: 2.8 nM
[20]
  half-life: 0.0833 days

## C[C@H]1[C@@H](O)O[C@@H]2O[C@@]3(C)CC[C@H]4[C@H](C)CC[C@@H]1[C@@]24OO3 [ARTENIMOL]
[21]
  degraded at 730.5 h: 2%
[22]
  degraded at 2191.5 h: 2.9%

## C[C@H]1[C@H](OC(=O)CCC(=O)O)O[C@@H]2O[C@@]3(C)CC[C@H]4[C@H](C)CC[C@@H]1[C@@]24OO3 [SODIUM ARESUNATE]
Plasmodium falciparum [18]
  EC50: 0.73 nM

## C[C@H]1[C@@H](OCc2ccc(C(=O)[O-])cc2)O[C@@H]2O[C@]3(C)CC[C@H]4[C@H](C)CC[C@@H]1[C@@]24OO3.[Na+] [SODIUMARTELINATE]
[2]
  half-life: 10.8 days
